According to US8952024B2, “Herbicidal pyrimidone derivatives” (E I du Pont de Nemours and Company, priority 2009, dated 2015):

Tests used:
Assay in all cases: Test B pre-/postemergence plant response
Type in all cases: in vivo
[1] = system: bermudagrass (Cynodon dactylon)
How it was run: (§1)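 Seeds were sown in loam soil/sand blend and treated preemergence with compound in non-phytotoxic solvent mixture containing surfactant; postemergence sprays, same formulation, went onto plants 2 to 18 cm (1- to 4-leaf stage) in peat-based planting medium. Greenhouse 13 to 15 days, then visual rating versus untreated controls, 0 (no effect) to 100 (complete control).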

[2] = system: green foxtail (Setaria viridis)
How it was run: as §1

[3] = system: downy bromegrass (Bromus tectorum)
How it was run: as §1

corn (Zea mays) = system: corn (Zea mays)
How it was run: as §1

[4] = system: Surinam grass (Brachiaria decumbens)
How it was run: as §1

[5] = system: giant foxtail (Setaria faberii)
How it was run: as §1

[6] = system: large crabgrass (Digitaria sanguinalis)
How it was run: as §1

[7] = system: woolly cupgrass (Eriochloa villosa)
How it was run: as §1

[8] = system: morningglory (Ipomoea coccinea)
How it was run: as §1

[9] = system: lambsquarters (Chenopodium album)
How it was run: as §1

[10] = system: yellow nutsedge (Cyperus esculentus)
How it was run: as §1

[11] = system: Italian ryegrass (Lolium multiflorum)
How it was run: as §1

[12] = system: blackgrass (Alopecurus myosuroides)
How it was run: as §1

[13] = 250 g ai/ha, Preemergence, 0 to 100 scale
[14] = Postemergence, 31 g ai/ha, scale 0 to 100 (0 no effect, 100 complete control)
[15] = Postemergence, 62 g ai/ha, scale 0 (no effect) to 100 (complete control), 13 to 15 days
[16] = Postemergence, 125 g ai/ha, visual rating after 13 to 15 days, scale 0 (no effect) to 100 (complete control)
[17] = Postemergence, 250 g ai/ha, scale 0 to 100
[18] = Preemergence, 31 g ai/ha, scale 0 to 100 (0 no effect, 100 complete control)
[19] = Preemergence, 62 g ai/ha, scale 0 to 100 (0 no effect, 100 complete control)
[20] = Preemergence, 125 g ai/ha, 0 to 100 scale

## CCCCc1ncc(C(=O)C2=C(O)CCCC2=O)c(=O)n1-c1ccccc1 [Compound 42]
[1]; [13]
  Plant response rating, Bermudagrass: 100
[1]; [14]
  Plant response rating, Bermudagrass: 70
[1]; [15]
  Plant response rating, Bermudagrass: 75
[1]; [16]
  Plant response rating, Bermudagrass: 95
[1]; [17]
  Bermudagrass plant response rating: 98
[1]; [18]
  Plant response rating, Bermudagrass: 90
[1]; [19]
  Plant response rating, Bermudagrass: 100
[1]; [20]
  Bermudagrass plant response rating: 100
[2]; [13]
  Plant response rating, Foxtail, Green: 85
[2]; [14]
  Plant response rating, Foxtail, Green: 50
[2]; [15]
  Plant response rating, Foxtail, Green: 55
[2]; [16]
  Plant response rating, Foxtail, Green: 60
[2]; [17]
  Foxtail, Green plant response rating: 85
[2]; [18]
  Plant response rating, Foxtail, Green: 65
[2]; [19]
  Plant response rating, Foxtail, Green: 65
[2]; [20]
  Foxtail, Green plant response rating: 85
[3]; [13]
  Plant response rating, Bromegrass, Downy: 0
[3]; [14]
  Plant response rating, Bromegrass, Downy: 0
[3]; [15]
  Plant response rating, Bromegrass, Downy: 5
[3]; [16]
  Plant response rating, Bromegrass, Downy: 15
[3]; [17]
  Bromegrass, Downy plant response rating: 25
[3]; [18]
  Plant response rating, Bromegrass, Downy: 0
[3]; [19]
  Plant response rating, Bromegrass, Downy: 0
[3]; [20]
  Bromegrass, Downy plant response rating: 0
Corn (Zea mays); [13]
  Plant response rating, Corn: 0
Corn (Zea mays); [14]
  Plant response rating, Corn: 0
Corn (Zea mays); [15]
  Plant response rating, Corn: 10
Corn (Zea mays); [16]
  Plant response rating, Corn: 20
Corn (Zea mays); [17]
  Corn plant response rating: 45
Corn (Zea mays); [18]
  Plant response rating, Corn: 0
Corn (Zea mays); [19]
  Plant response rating, Corn: 0
Corn (Zea mays); [20]
  Corn plant response rating: 0
[4]; [13]
  Plant response rating, Surinam Grass: 75
[4]; [15]
  Plant response rating, Surinam Grass: 40
[4]; [16]
  Plant response rating, Surinam Grass: 45
[4]; [18]
  Plant response rating, Surinam Grass: 0
[4]; [20]
  Surinam Grass plant response rating: 10
[5]; [13]
  Plant response rating, Foxtail, Giant: 10
[5]; [14]
  Plant response rating, Foxtail, Giant: 45
[5]; [15]
  Plant response rating, Foxtail, Giant: 65
[5]; [16]
  Plant response rating, Foxtail, Giant: 75
[5]; [17]
  Foxtail, Giant plant response rating: 85
[5]; [18]
  Plant response rating, Foxtail, Giant: 0
[5]; [19]
  Plant response rating, Foxtail, Giant: 0
[5]; [20]
  Foxtail, Giant plant response rating: 10
[6]; [13]
  Plant response rating, Crabgrass, Large: 100
[6]; [14]
  Plant response rating, Crabgrass, Large: 70
[6]; [15]
  Plant response rating, Crabgrass, Large: 75
[6]; [16]
  Plant response rating, Crabgrass, Large: 85
[6]; [17]
  Crabgrass, Large plant response rating: 90
[6]; [18]
  Plant response rating, Crabgrass, Large: 45
[6]; [19]
  Plant response rating, Crabgrass, Large: 85
[6]; [20]
  Crabgrass, Large plant response rating: 95
[7]; [13]
  Plant response rating, Cupgrass, Woolly: 5
[7]; [14]
  Plant response rating, Cupgrass, Woolly: 15
[7]; [15]
  Plant response rating, Cupgrass, Woolly: 20
[7]; [16]
  Plant response rating, Cupgrass, Woolly: 25
[7]; [17]
  Cupgrass, Woolly plant response rating: 55
[7]; [18]
  Plant response rating, Cupgrass, Woolly: 0
[7]; [19]
  Plant response rating, Cupgrass, Woolly: 0
[7]; [20]
  Cupgrass, Woolly plant response rating: 0
[8]; [13]
  Plant response rating, Morningglory: 0
[8]; [15]
  Plant response rating, Morningglory: 70
[8]; [16]
  Plant response rating, Morningglory: 75
[8]; [18]
  Plant response rating, Morningglory: 0
[8]; [19]
  Plant response rating, Morningglory: 0
[8]; [20]
  Morningglory plant response rating: 0
[9]; [13]
  Plant response rating, Lambsquarters: 100
[9]; [15]
  Plant response rating, Lambsquarters: 95
[9]; [16]
  Plant response rating, Lambsquarters: 100
[9]; [17]
  Lambsquarters plant response rating: 100
[9]; [18]
  Plant response rating, Lambsquarters: 100
[9]; [19]
  Plant response rating, Lambsquarters: 100
[9]; [20]
  Lambsquarters plant response rating: 100
[10]; [13]
  Plant response rating, Nutsedge, Yellow: 85
[10]; [15]
  Plant response rating, Nutsedge, Yellow: 60
[10]; [16]
  Plant response rating, Nutsedge, Yellow: 70
[10]; [18]
  Plant response rating, Nutsedge, Yellow: 10
[10]; [20]
  Nutsedge, Yellow plant response rating: 75
[11]; [13]
  Plant response rating, Ryegrass, Italian: 0
[11]; [15]
  Plant response rating, Ryegrass, Italian: 5
[11]; [16]
  Plant response rating, Ryegrass, Italian: 10
[11]; [18]
  Plant response rating, Ryegrass, Italian: 0
[11]; [20]
  Ryegrass, Italian plant response rating: 0
[12]; [13]
  Plant response rating, Blackgrass: 5
[12]; [14]
  Plant response rating, Blackgrass: 5
[12]; [15]
  Plant response rating, Blackgrass: 10
[12]; [16]
  Plant response rating, Blackgrass: 15
[12]; [17]
  Blackgrass plant response rating: 20
[12]; [18]
  Plant response rating, Blackgrass: 0
[12]; [19]
  Plant response rating, Blackgrass: 0
[12]; [20]
  Blackgrass plant response rating: 0
